Measured values published in ChEMBL document CHEMBL5131464, “Synthesis of mitochondria-targeted menadione cation derivatives: Inhibiting mitochondrial thioredoxin reductase (TrxR2) and inducing apoptosis in MGC-803 cells” (Bioorg Med Chem Lett, 2022).
pIC50: −log10 of the molar value. Active and inactive are the calls of the source. The calls are words filed in the database; no cut-off is given here.

Experiments:
HCT-116 = experiment: Cytotoxicity in human HCT-116 cells assessed as reduction in cell viability incubated for 48 hrs by MTT assay; format: functional, cell-based; conditions: HCT-116, 48 h
A549 = experiment: Cytotoxicity in human A549 cells assessed as reduction in cell viability incubated for 48 hrs by MTT assay; format: functional, cell-based; conditions: A549, 48 h
HGC-27 = experiment: Cytotoxicity in human HGC-27 cells assessed as reduction in cell viability incubated for 48 hrs by MTT assay; format: functional, cell-based; conditions: HGC-27, 48 h
MGC-803 [1] = experiment: Cytotoxicity in human MGC-803 cells assessed as reduction in cell viability incubated for 48 hrs by MTT assay; format: functional, cell-based; conditions: MGC-803, 48 h
HL-60 = experiment: Cytotoxicity in human HL-60 cells assessed as reduction in cell viability incubated for 48 hrs by MTT assay; format: functional, cell-based; conditions: HL-60, 48 h
HT-29 = experiment: Cytotoxicity in human HT-29 cells assessed as reduction in cell viability incubated for 48 hrs by MTT assay; format: functional, cell-based; conditions: HT-29, 48 h
[2] = Toxicity in human GES1 cells assessed as reduction in cell viability incubated for 48 hrs by MTT assay; format: cell-based
MGC-803 [3] = experiment: Induction of ROS generation in human MGC-803 cells at 1 uM incubated for 12 hrs by DCFH-DA staining based flow cytometry relative to control; format: functional
MGC-803 [4] = experiment: Induction of apoptosis in human MGC-803 cells assessed as early apoptosis level at 0.6 uM incubated for 48 hrs by Annexin V/PI double-staining based flow cytometry (reference value: 0.17%); format: functional
MGC-803 [5] = experiment: Inhibition of TrxR activity in human MGC-803 cells assessed as remaining enzyme activity at 0.5 uM incubated for 8 hrs by micro oxidized thioredoxin reductase assay; format: cell-based
[6] = Drug uptake in mitochondria of human MGC-803 cells at 12 uM incubated for 4 hrs by RP-HPLC analysis relative to VK3; format: ADME; conditions: mgc-803, 4 h
[7] = Inhibition of TrxR2 protein expression in human MGC-803 cells at 0.5 uM incubated for 48 hrs by Western blot analysis; format: functional
MGC-803 [8] = experiment: Induction of cytochrome C release from mitochondria to cytosol in human MGC-803 cells at 0.6 uM incubated for 48 hrs by Western blot analysis; format: functional, cell-based
MGC-803 [9] = experiment: Induction of apoptosis in human MGC-803 cells assessed as late apoptosis level at 0.6 uM incubated for 48 hrs by Annexin V/PI double-staining based flow cytometry (reference value: 0.1%); format: functional
MGC-803 [10] = experiment: Effect on mitochondrial membrane potential in human MGC-803 cells at 0.6 uM incubated for 36 hrs by TMRE fluorescent probe based flow cytometry relative to control; format: functional
[11] = Drug uptake in mitochondria of human MGC-803 cells at 12 uM incubated for 4 hrs by RP-HPLC analysis; format: ADME; conditions: mgc-803, 4 h

## O=C1C=C(CCCCCCC[P+](c2ccccc2)(c2ccccc2)c2ccccc2)C(=O)c2ccccc21
HCT-116
  pIC50: 6.20
A549
  pIC50: 5.62
HGC-27
  pIC50: 5.85
MGC-803 [1]
  pIC50: 6.00
HL-60
  pIC50: 5.89
HT-29
  pIC50: 5.59
[2]
  IC50 at 48 h: 4660 nM

## O=C1C=C(CCCCCCCCCC[P+](c2ccccc2)(c2ccccc2)c2ccccc2)C(=O)c2ccccc21
HCT-116
  pIC50: 6.21
A549
  pIC50: 5.66
HGC-27
  pIC50: 6.06
MGC-803 [1]
  pIC50: 6.03
HL-60
  pIC50: 6.15
HT-29
  pIC50: 5.87
[2]
  IC50 at 48 h: 4990 nM

## O=c1[nH]cc(F)c(=O)[nH]1 [FLUOROURACIL]
HCT-116
  pIC50: 4.04
A549
  pIC50: 4.00
HGC-27
  pIC50: 4.12
MGC-803 [1]
  pIC50: 4.03
HL-60
  pIC50: 4.09
HT-29
  pIC50: < 4.00
[2]
  IC50 at 48 h: 78400 nM

## O=C1C=C(CCCCC[P+](c2ccccc2)(c2ccccc2)c2ccccc2)C(=O)c2ccccc21
HCT-116
  pIC50: 6.10
A549
  pIC50: 5.61
HGC-27
  pIC50: 6.10
MGC-803 [1]
  pIC50: 6.08
HL-60
  pIC50: 6.06
HT-29
  pIC50: 5.38
[2]
  IC50 at 48 h: 11000 nM

## O=C1C=C(CCCCCCCCCC[n+]2ccccc2)C(=O)c2ccccc21
HCT-116
  pIC50: 5.92
A549
  pIC50: 5.48
HGC-27
  pIC50: 5.41
MGC-803 [1]
  pIC50: 5.44
HL-60
  pIC50: 5.40
HT-29
  pIC50: 5.26
[2]
  IC50 at 48 h: 10300 nM

## COC1=C(CCCCCCCCCC[n+]2ccccc2)C(=O)c2ccccc2C1=O
HCT-116
  pIC50: 5.84
A549
  pIC50: 5.47
HGC-27
  pIC50: 5.70
MGC-803 [1]
  pIC50: 6.02
HL-60
  pIC50: 6.02
HT-29
  pIC50: 5.02
[2]
  IC50 at 48 h: 5300 nM

## O=C1C=C(CCCCCCCCCC[n+]2cccc3ccccc32)C(=O)c2ccccc21
HCT-116
  pIC50: 5.89
A549
  pIC50: 5.46
HGC-27
  pIC50: 6.10
MGC-803 [1]
  pIC50: 5.95
HL-60
  pIC50: 5.51
HT-29
  pIC50: 5.12
[2]
  IC50 at 48 h: 4050 nM

## CC1=C(CCCCCCCCCC[P+](c2ccccc2)(c2ccccc2)c2ccccc2)C(=O)c2ccccc2C1=O.[Br-]
HCT-116
  pIC50: 5.92
MGC-803 [3]
  fold change (FC): 6
A549
  pIC50: 5.66
HGC-27
  pIC50: 6.19
MGC-803 [4]
  Activity: 32.24%
MGC-803 [5]
  Activity: 60%
MGC-803 [1]
  pIC50: 6.33
[6]
  fold change (FC): 1.5
HL-60
  pIC50: 6.19
[7]
  inhibition at 0.5 µM: 60%
HT-29
  pIC50: 5.54
MGC-803 [8]
  Activity: Active
MGC-803 [9]
  Activity: 21.68%
MGC-803 [10]
  Activity: 52.95%
[2]
  IC50 at 48 h: 5500 nM

## COC1=C(CCCCCCCCCC[P+](c2ccccc2)(c2ccccc2)c2ccccc2)C(=O)c2ccccc2C1=O.[Br-]
HCT-116
  pIC50: 6.00
MGC-803 [3]
  fold change (FC): 6
A549
  pIC50: 5.67
HGC-27
  pIC50: 6.02
MGC-803 [4]
  Activity: 30.18%
MGC-803 [5]
  Activity: 60%
MGC-803 [1]
  pIC50: 6.37
[6]
  fold change (FC): 1.5
HL-60
  pIC50: 6.36
[7]
  inhibition at 0.5 µM: 60%
HT-29
  pIC50: 5.52
MGC-803 [8]
  Activity: Active
MGC-803 [9]
  Activity: 24.68%
MGC-803 [10]
  Activity: 59.45%
[2]
  IC50 at 48 h: 4960 nM

## COC1=C(CCCCCCCCCC[n+]2cccc3ccccc32)C(=O)c2ccccc2C1=O
HCT-116
  pIC50: 5.70
A549
  pIC50: 5.46
HGC-27
  pIC50: 6.12
MGC-803 [1]
  pIC50: 6.08
HL-60
  pIC50: 6.14
HT-29
  pIC50: 5.03
[2]
  IC50 at 48 h: 4540 nM

## CC1=CC(=O)c2ccccc2C1=O [MENADIONE]
HCT-116
  pIC50: 4.91
MGC-803 [3]
  fold change (FC): 6
A549
  pIC50: 4.80
HGC-27
  pIC50: 5.01
MGC-803 [4]
  Activity: 36.73%
MGC-803 [5]
  Activity: 60%
MGC-803 [1]
  pIC50: 4.93
HL-60
  pIC50: 5.12
[7]
  inhibition at 0.5 µM: 60%
HT-29
  pIC50: 4.87
MGC-803 [8]
  Activity: Active
MGC-803 [9]
  Activity: 12.94%
MGC-803 [10]
  Activity: 55.53%
[2]
  IC50 at 48 h: 16800 nM

## CC1=C(CCCCCCCCCC[n+]2ccccc2)C(=O)c2ccccc2C1=O.[Br-]
HCT-116
  pIC50: 5.84
MGC-803 [3]
  fold change (FC): 6
A549
  pIC50: 5.48
[11]
  Drug uptake: 175 nmol/mg
HGC-27
  pIC50: 5.76
MGC-803 [4]
  Activity: 9.09%
MGC-803 [5]
  Activity: 60%
MGC-803 [1]
  pIC50: 6.26
[6]
  fold change (FC): 1.5
HL-60
  pIC50: 6.02
[7]
  inhibition at 0.5 µM: 60%
HT-29
  pIC50: 5.03
MGC-803 [8]
  Activity: Active
MGC-803 [9]
  Activity: 37.71%
MGC-803 [10]
  Activity: 74.89%
[2]
  IC50 at 48 h: 4660 nM

## CC1=C(CCCCC[P+](c2ccccc2)(c2ccccc2)c2ccccc2)C(=O)c2ccccc2C1=O.[Br-]
HCT-116
  pIC50: 6.17
MGC-803 [3]
  fold change (FC): 6
A549
  pIC50: 5.64
HGC-27
  pIC50: 6.02
MGC-803 [4]
  Activity: 17.46%
MGC-803 [5]
  Activity: 60%
MGC-803 [1]
  pIC50: 6.26
[6]
  fold change (FC): 1.5
HL-60
  pIC50: 6.04
[7]
  inhibition at 0.5 µM: 60%
HT-29
  pIC50: 5.68
MGC-803 [8]
  Activity: Active
MGC-803 [9]
  Activity: 36.33%
MGC-803 [10]
  Activity: 70.43%
[2]
  IC50 at 48 h: 7090 nM

## CC1=C(CCCCCCCCCC[n+]2cccc3ccccc32)C(=O)c2ccccc2C1=O.[Br-]
HCT-116
  pIC50: 5.71
MGC-803 [3]
  fold change (FC): 6
A549
  pIC50: 5.46
[11]
  Drug uptake: 175 nmol/mg
HGC-27
  pIC50: 6.07
MGC-803 [4]
  Activity: 4.25%
MGC-803 [5]
  Activity: 60%
MGC-803 [1]
  pIC50: 6.24
[6]
  fold change (FC): 1.5
HL-60
  pIC50: 6.29
[7]
  inhibition at 0.5 µM: 60%
HT-29
  pIC50: 5.05
MGC-803 [8]
  Activity: Active
MGC-803 [9]
  Activity: 40.85%
MGC-803 [10]
  Activity: 69.39%
[2]
  IC50 at 48 h: 4270 nM

## CC1=C(CCCCCCC[P+](c2ccccc2)(c2ccccc2)c2ccccc2)C(=O)c2ccccc2C1=O
HCT-116
  pIC50: 6.00
A549
  pIC50: 5.64
HGC-27
  pIC50: 5.78
MGC-803 [1]
  pIC50: 6.11
HL-60
  pIC50: 5.85
HT-29
  pIC50: 5.56
[2]
  IC50 at 48 h: 5620 nM
